Measurements taken from patent US20160338935A1, “PROCESS FOR THE PURIFICATION OF HEPARAN SULFATE AND USE THEREOF IN COSMETOLOGICAL AND DERMATOLOGICAL PREPARATIONS” (LABORATORI DERIVATI ORGANICI SPA, priority 2008, published 2016).

Tests used:
melanoma cells B16 = test: In vitro bleaching (whitening) activity: melanin content on melanoma cells B16; type: cell-based
Experimental: The in vitro whitening effect of HS was detected by measurement of melanin content on melanoma cells B16 (fibroblast-like cells able to produce melanin) after 6 days of contact with HS at 2 different concentrations: 0.1 mg/ml (0.01%) and 0.05 mg/ml (0.005%).
The negative control (NC) was represented by untreated cells (cell without any substance). The positive control (PC) was represented by cells treated with Hydroquinone 5 μg/ml (0.0005%).

fibroblast cells = test: In vitro mitogenic activity: fibroblast cells proliferation and protein synthesis; type: cell-based
Experimental: The mitogenic effect of HS is detected by measurement of fibroblast cells proliferation, measurement of protein synthesis after exposure for 48 hours and 72 hours, using HS at 2 different concentrations: 0.1 mg/ml (0.01%) and 0.05 mg/ml (0.005%). The negative control (NC) is represented by untreated cells, the positive control (PC) is: EGF (Epidermal Growth Factor) (10 μg/ml) (0.001%).

basophil cells = test: In vitro degranulation test on basophil cells (release of β-hexosaminidase); type: cell-based
Experimental: Basophil cells, when come in contact with irritant substances, give their biochemical response that is the secretion (by degranulation) of substances (such as histamine, leukotriens, proteolytic enzymes as hexosaminidase) that contribute to inflammatory events.
Inhibition in basophil cells degranulation is a measure of lenitive (anti-itching) effect of a substance. The in vitro lenitive effect of HS was detected by measurement of the release of β-hexosaminidase after 2 h of contact with HS at 4 different concentrations: 10 mg/ml (1%), 5 mg/ml (0.5%), 1 mg/ml (0.1%), 0.2 mg/ml (0.02%).
The negative control (NC) was represented by untreated cells (cells without any substance). The positive control (PC) was represented by basophil degranulation stimuli (by crosslinking the receptor FcεRI with a specific polyclonal antibody against to the α-chain stimulate the degranulation). The maximal stimulation (degranulation) is: cell treated with 1% Triton X-100. […]

[1] = APTT (European Pharmacopeia, 4th edition); details: purified heparan sulfate
Experimental: Organic sulfur, Uronic acid, Glucosamine, Optical rotation, total nitrogen and APTT were measured in accordance with the European Pharmacopeia, 4th edition. Electrophoresis was performed in accordance with R. Cappelletti et al. “A new Electrophoretic method for the separation of all Gags” Anal. Biochem. 99:311-315 (1979).

[2] = system: human keratinocytes cell cultures; test: In vitro anti-oxidant activity against UVA: ROS reduction on human keratinocytes cell cultures; type: cell-based; details: for inhibition at 150 µg/mL: Homo sapiens, Keratinocyte, light or radiation study, Vit C 0.15 mg/ml
Experimental: In vitro Evaluation of the anti-ageing activity of cosmetic products through the investigation of their anti-oxidant and protective activity against UVA on human keratinocytes cell cultures. The antioxidant effect of HS is detected by measurement of reduction of free radicals as Reactive Oxygen Species (ROS) after exposure to 3 different UVA irradiation for 1 minute and 30 seconds (1′ 30″), for 3 minutes (3′) and for 4 minutes and 30 seconds (4′ 30″), with HS at 7 different concentrations: 0.031 mg/ml (0.0031%), 0.063 mg/ml (0.0063%), 0.125 mg/ml (0.0125%), 0.250 mg/ml (0.0250%), 0.500 mg/ml (0.0500%), 1.000 mg/ml (0.1000%) and […]. The negative control (NC) was: untreated cells (cells without any substance). The positive control (PC) was: Vitamin C (0.15 mg/ml) (0.015%).

[3] = HS 0.005% (0.05 mg/ml), 6 days of contact
[4] = HS 0.01% (0.1 mg/ml), 6 days of contact
[5] = Hydroquinone 0.0005% (5 μg/ml), positive control

## heparan sulphate sodium salt [HS]
Melanoma cells B16; 0.1 and 0.05 mg/ml, 6 days
  in vitro whitening effect: shows in vitro whitening effect
Melanoma cells B16; [3]
  % Melanin Synthesis Inhibition vs NC: 5.2%
  Melanin Content (μg melanin/mg protein): 44.4 μg melanin/mg protein
Melanoma cells B16; [4]
  % Melanin Synthesis Inhibition vs NC: 10.3%
  Melanin Content (μg melanin/mg protein): 41.9 μg melanin/mg protein
Fibroblast cells; 48 h, HS 0.05 mg/ml (0.005%)
  % cell proliferation vs NC: 106.7%
  % protein synthesis vs NC: 110.2%
Fibroblast cells; 48 h, HS 0.1 mg/ml (0.01%)
  % cell proliferation vs NC: 110.5%
  % protein synthesis vs NC: 103.1%
Fibroblast cells; 72 h, HS 0.05 mg/ml (0.005%)
  % cell proliferation vs NC: 118.2%
  % protein synthesis vs NC: 120.4%
Fibroblast cells; 72 h, HS 0.1 mg/ml (0.01%)
  % cell proliferation vs NC: 118.1%
  % protein synthesis vs NC: 113.2%
Fibroblast cells; 72 hour, 0.05 mg/ml
  highest effect for cell proliferation (increase over NC): 18.2%
  highest effect for protein synthesis (increase over NC): 20.4%
Basophil cells; HS 0.2 mg/ml + PC (degranulation stimulus)
  release of β-hexosaminidase OD at 450 nm: 0.112 OD
Basophil cells; HS 0.2 mg/ml alone, 2 h of contact
  release of β-hexosaminidase OD at 450 nm: 0.061 OD
Basophil cells; HS 1 mg/ml + PC (degranulation stimulus)
  release of β-hexosaminidase OD at 450 nm: 0.110 OD
Basophil cells; HS 1 mg/ml alone, 2 h of contact
  release of β-hexosaminidase OD at 450 nm: 0.062 OD
Basophil cells; HS 5 mg/ml + PC (degranulation stimulus)
  release of β-hexosaminidase OD at 450 nm: 0.055 OD
Basophil cells; HS 5 mg/ml alone, 2 h of contact
  release of β-hexosaminidase OD at 450 nm: 0.059 OD
Basophil cells; HS 10 mg/ml + PC (degranulation stimulus)
  release of β-hexosaminidase OD at 450 nm: 0.061 OD
Basophil cells; HS 10 mg/ml alone, 2 h of contact
  release of β-hexosaminidase OD at 450 nm: 0.066 OD
Basophil cells; HS + PC, best efficacy at 0.5% and 1%
  level of β-hexosaminidase with irritant substance (positive control) and HS: decrease in a dose dependent way
Basophil cells; HS alone at different concentration
  effect on basophil cells degranulation: no effect on basophil cells degranulation
[1]
  APTT: 6.31 U/mg
[2]; 1′30″ UVA, HS 0.031 mg/ml
  ROS Inhibition %: 25.3%
[2]; 1′30″ UVA, HS 0.063 mg/ml
  ROS Inhibition %: 25.4%
[2]; 1′30″ UVA, HS 0.125 mg/ml
  ROS Inhibition %: 23.5%
[2]; 1′30″ UVA, HS 0.250 mg/ml
  ROS Inhibition %: 28.0%
[2]; 1′30″ UVA, HS 0.500 mg/ml
  ROS Inhibition %: 30.6%
[2]; 1′30″ UVA, HS 1.000 mg/ml
  ROS Inhibition %: 38.7%
[2]; 1′30″ UVA, HS 9.000 mg/ml
  ROS Inhibition %: 30.7%
[2]; 3′00″ UVA, HS 0.031 mg/ml
  ROS Inhibition %: 20.1%
[2]; 3′00″ UVA, HS 0.063 mg/ml
  ROS Inhibition %: 21.8%
[2]; 3′00″ UVA, HS 0.125 mg/ml
  ROS Inhibition %: 14.2%
[2]; 3′00″ UVA, HS 0.250 mg/ml
  ROS Inhibition %: 22.9%
[2]; 3′00″ UVA, HS 0.500 mg/ml
  ROS Inhibition %: 29.1%
[2]; 3′00″ UVA, HS 1.000 mg/ml
  ROS Inhibition %: 35.7%
[2]; 3′00″ UVA, HS 9.000 mg/ml
  ROS Inhibition %: 31.6%
[2]; 4′30″ UVA, HS 0.031 mg/ml
  ROS Inhibition %: 6.2%
[2]; 4′30″ UVA, HS 0.063 mg/ml
  ROS Inhibition %: 13.7%
[2]; 4′30″ UVA, HS 0.125 mg/ml
  ROS Inhibition %: 10.3%
[2]; 4′30″ UVA, HS 0.250 mg/ml
  ROS Inhibition %: 18.1%
[2]; 4′30″ UVA, HS 0.500 mg/ml
  ROS Inhibition %: 24.7%
[2]; 4′30″ UVA, HS 1.000 mg/ml
  ROS Inhibition %: 30.4%
[2]; 4′30″ UVA, HS 9.000 mg/ml
  ROS Inhibition %: 26.3%
[2]; HS at 0.1% concentration
  antioxidant efficacy compared with Vitamin C: comparable or even higher than the efficacy of Vitamin C

## EGF: EGF (Epidermal Growth Factor), positive control [reference compound]
Fibroblast cells; 48 h, EGF 10 μg/ml (0.001%)
  % cell proliferation vs NC: 112.5%
  % protein synthesis vs NC: 116.6%
Fibroblast cells; 72 h, EGF 10 μg/ml (0.001%)
  % cell proliferation vs NC: 121.6%
  % protein synthesis vs NC: 119.0%

## O=C1O[C@H]([C@@H](O)CO)C(O)=C1O [Vit C, Vitamin C, reference compound]
[2]; 1′30″ UVA
  inhibition at 150 µg/mL: 33.5%
[2]; 3′00″ UVA
  inhibition at 150 µg/mL: 31.4%
[2]; 4′30″ UVA
  inhibition at 150 µg/mL: 12.7%

## Triton X-100 [reference compound]
Basophil cells; maximal stimulation: 1% Triton X-100
  release of β-hexosaminidase OD at 450 nm: 0.377 OD

## Oc1ccc(O)cc1 [Hydroquinone, reference compound]
Melanoma cells B16; [5]
  % Melanin Synthesis Inhibition vs NC: 76.8%
  Melanin Content (μg melanin/mg protein): 10.8 μg melanin/mg protein
